“Also recorded” adds a separate entry of the source.
Key:
[1] = system: MLP-29 cells; details: cited from earlier work
[2] = system: GTL-16 gastric carcinoma cells; details: cited from earlier work
[3] = biological target: MET (Homo sapiens, UniProt P08581); details: nanomolar concentrations; cited from earlier work
[4] = system: NIH3T3 fibroblasts; details: cited from earlier work
[5] = system: Amp+ cells; test: Viability of gastric cancer cell lines with MET amplification (MTT); type: cell-based, human; details: 5 of 5 Amp+ gastric cancer cell lines; 96 h
[6] = system: Amp+ cells; test: Growth curve (SYTO60 staining); type: cell-based, human; details: 1 μM, up to 6 days
[7] = system: Amp− cells; test: Viability of gastric cancer cell lines without MET amplification (MTT); type: cell-based, human; details: 12 of 12 Amp− gastric cancer cell lines; 96 h
[8] = system: MKN45; test: Drug-sensitivity screen of 40 human cancer cell lines (DNA staining, 3 days); type: cell-based; details: MKN45 gastric cancer cell line
Description: (§1) Cells were cultured and analyzed in triplicate within microtiter plates. Cell numbers were quantitated by DNA staining, 3 days after addition of various concentrations of drugs and expressed as a fraction of matched untreated cultures. For each drug concentration, cell lines with relative drug sensitivity (<50% of untreated control growth) are shown in darkest staining, intermediate sensitivity (50-75%) in […], and drug insensitivity (>75%) in intermediate shading.
(§2) Cellular Proliferation and Viability Assays. […] For quantitation of cellular proliferation, cells were fixed at appropriate time points in 4% paraformaldehyde, and all plates were stained simultaneously by using the fluorescent nucleic acid stain SYTO60 (Molecular Probes) at 1:8,000 dilution in PBS. Quantitation was done by measuring the […] at 700 nm by using the Odyssey Imaging System (LI-COR, Lincoln, Nebr.). The relative cell number was obtained by normalizing treated samples to matched untreated specimens. For quantitation of cell viability, cultures were stained after 4 days by using the MTT assay. Briefly, 10 μl of 5 mg/ml MTT (Thiazolyl blue) solution was added to each well and incubated for 2 h at 37° C. For adherent cell lines, the media was removed from each well, and the resultant MTT formazan was solubilized in 100 μl of DMSO. For nonadherent cell lines, the MTT formazan was solubilized by direct addition of 100 μl of acidic isopropanol (0.1 N HCl) to each well. The results were quantitated spectrophotometrically by using a test wavelength of 570 nm and a reference wavelength of 630 nm.

[9] = system: MKN7; test: MTT viability assay, gastric cancer cell line; type: cell-based; details: Homo sapiens, MKN-7, 96 h
Description: (§3) Cells were plated in 96-well plate in medium containing 4% fetal bovine serum at approximately 4000 cells/well. […] Cell viability was measured 96 h later using the MTT assay. Briefly, 10 ul of 5 mg/ml MTT (Thiazolyl blue) solution was added to each well and incubated for about 2 hours at 37° C. For adherent cell lines, the media was removed from each well and the resultant MTT formazan was solubilized in 100 ul of DMSO. For suspension cell lines, the MMT formazan was solubilized by direct addition of 100 ul of acidic isopropanol (0.1N HCl) to each well. The results were quantitated spectrophotometrically using a test wavelength of 570 nm and a reference wavelength of 630 nm.
as §2

[10] = system: SNU-5; test: MTT viability assay, gastric cancer cell line; type: cell-based; details: Homo sapiens, SNU-5, 96 h
Description: as §3, §2

[11] = system: Hs746T; test: MTT viability assay, gastric cancer cell line; type: cell-based; details: Homo sapiens, 96 h
Description: as §3, §2

[12] = system: N87; test: MTT viability assay, gastric cancer cell line; type: cell-based; details: Homo sapiens, 96 h
Description: as §3, §2

[13] = system: KATO II; test: MTT viability assay, gastric cancer cell line; type: cell-based; details: Homo sapiens, 96 h
Description: as §3, §2

[14] = system: MKN1; test: MTT viability assay, gastric cancer cell line; type: cell-based; details: Homo sapiens, MKN-1, 96 h
Description: as §3, §2

[15] = system: MKN74; test: MTT viability assay, gastric cancer cell line; type: cell-based; details: Homo sapiens, MKN-74, 96 h
Description: as §3, §2

[16] = system: Hs738T; test: MTT viability assay, gastric cancer cell line; type: cell-based; details: Homo sapiens, 96 h
Description: as §3, §2

[17] = system: KATO III; test: MTT viability assay, gastric cancer cell line; type: cell-based; details: Homo sapiens, 96 h
Description: as §3, §2

[18] = system: MKN28; test: MTT viability assay, gastric cancer cell line; type: cell-based; details: Homo sapiens, MKN-28, 96 h
Description: as §3, §2

[19] = system: AGS; test: MTT viability assay, gastric cancer cell line; type: cell-based; details: Homo sapiens, 96 h
Description: as §3, §2

[20] = system: SNU-1; test: MTT viability assay, gastric cancer cell line; type: cell-based; details: Homo sapiens, SNU1, 96 h
Description: as §3, §2

[21] = system: SNU-16; test: MTT viability assay, gastric cancer cell line; type: cell-based; details: Homo sapiens, SNU-16, 96 h
Description: as §3, §2

[22] = system: HSC39; test: MTT viability assay, gastric cancer cell line; type: cell-based; details: Homo sapiens, 96 h
Description: as §3, §2

[23] = system: MKN45; test: MTT viability assay, gastric cancer cell line; type: cell-based; details: Homo sapiens, MKN-45, 96 h
Description: as §3, §2

[24] = system: GTL16; test: MTT viability assay, gastric cancer cell line; type: cell-based; details: Homo sapiens, GTL 16, 96 h
Description: as §3, §2

[25] = system: TMK-1; test: MTT viability assay, gastric cancer cell line; type: cell-based; details: Homo sapiens, TMK-1, 96 h
Description: as §3, §2

[26] = system: ERK1/2, AKT, STAT3, and FAK in Amp+ cells; test: Immunoblotting of downstream effector phosphorylation; type: cell-based, human; details: 3 h, 50 nM
Description: (§4) FIG. 3: Constitutive activation of MET and activation of downstream signaling pathways in Amp^+ cells. (FIG. 3A) MET is constitutively activated in the Amp^+ cells. […] (FIG. 3B) Effect of HGF on MET activation in Amp^+ and Amp^− cells (representative immunoblots). Cells were serum-starved for 24 h and treated with 40 ng/ml HGF for 10 minutes. Phosphorylation of MET (Y1234/1235) is unaltered in Amp^+ cells treated with HGF, but it is induced by HGF in Amp^− cells (total MET control).
(§5) Cells are costained with DAPI to show nuclei.
(§6) Cells were either directly lysated in 2× sample buffer or in RIPA buffer (150 mM NaCl, 50 mM Tris pH 8.0, 1% NP40, 0.5% DOC, 0.1% SDS, 1 mM EDTA, 10 mM NaF, 1 mM Na-orthovanadate, 1× protease inhibitor cocktail (Roche; Indianapolis, Ind.)). Cell lysates were sonicated for 10 sec and cleared by centrifugation at 14,000 rpm for 10 min at 4° C. Cleared lysates were boiled in sample buffer and loaded onto 10% SDS-PAGE gel. For immunoblotting analysis, proteins were transferred onto Immobilon PVDF membrane (Millipore; Bedford, Mass.) and visualized with Western Lightning Plus chemiluminescence kit (Perkin Elmer; Boston, Mass.).

[27] = system: ERK1/2, AKT, STAT3, or FAK in Amp− cells; test: as above; type: cell-based, human; details: 3 h
Description: as §4, §5, §6

[28] = system: Amp− cells; test: Growth curve (SYTO60 staining); type: cell-based, human; details: 1 μM, up to 6 days
[29] = system: platelet-derived growth factor receptor; details: cited from earlier work
[30] = system: MET autophosphorylation (Y1234/1235) in Amp+ cells; test: Immunoblotting of MET autophosphorylation; type: cell-based, human; details: 3 h, 50 nM
[31] = system: Amp− cells; test: Apoptosis induction assay (cleaved caspase-3, PARP cleavage); type: cell-based, human; details: 72 h, identical conditions
Description: as §5
(§7) Cells were plated on coverslips in 12-well dishes and grown to approximately 75% confluency in 10% serum. […] After 72 h the cells were fixed with 4% paraformaldehyde for 20 minutes. Permeabilization with 1% NP40 for 5 minutes was followed by blocking with 3% BSA for 30 minutes. The coverslips were then incubated overnight at 4° C. with cleaved caspase-3 antibody at 1:200 dilution. The next day, the coverslips were washed 3 times with PBS and incubated with a secondary antibody (goat anti-rabbit FITC-conjugated) for 1 h at 1:250 dilution. Following 5 washes with PBS, coverslips were mounted in Vectashield mounting medium containing DAPI (Vector Laboratories; Burlingame, Calif.).
(§8) Apoptosis Induction Assay. […] After 72 h, cells were fixed with 4% paraformaldehyde for 20 min, permeabilized by using 1% Nonidet P-40 for 5 min, and blocked with 3% BSA for 30 min. The coverslips were then incubated overnight at 4° C. with cleaved caspase-3 antibody at 1:200 dilution. The next day, the coverslips were washed three times with PBS and incubated with a secondary antibody (goat anti-rabbit FITC-conjugated) for 1 h at 1:250 dilution. After five washes with PBS, coverslips were mounted in Vectashield mounting medium containing DAPI (Vector Laboratories), and staining was visualized by fluorescent microscopy.

[32] = system: Amp+ cells; test: as above; type: cell-based, human; details: 72 h, 1 μM (caspase-3), 500 nM (PARP)
Description: as §5, §7, §8

[33] = system: NCI-H1975; test: Drug-sensitivity screen of 40 human cancer cell lines (DNA staining, 3 days); type: cell-based; details: NCI-H1975 (EGFR L858R and T790M)
Description: as §1, §2

[34] = system: NCI-H1650; test: as above; type: cell-based; details: NCI-H1650 (EGFR del E746-A750), tested 100 nM to 10 μM
Description: as §1, §2

Sequence of MET (P08581 25-1390): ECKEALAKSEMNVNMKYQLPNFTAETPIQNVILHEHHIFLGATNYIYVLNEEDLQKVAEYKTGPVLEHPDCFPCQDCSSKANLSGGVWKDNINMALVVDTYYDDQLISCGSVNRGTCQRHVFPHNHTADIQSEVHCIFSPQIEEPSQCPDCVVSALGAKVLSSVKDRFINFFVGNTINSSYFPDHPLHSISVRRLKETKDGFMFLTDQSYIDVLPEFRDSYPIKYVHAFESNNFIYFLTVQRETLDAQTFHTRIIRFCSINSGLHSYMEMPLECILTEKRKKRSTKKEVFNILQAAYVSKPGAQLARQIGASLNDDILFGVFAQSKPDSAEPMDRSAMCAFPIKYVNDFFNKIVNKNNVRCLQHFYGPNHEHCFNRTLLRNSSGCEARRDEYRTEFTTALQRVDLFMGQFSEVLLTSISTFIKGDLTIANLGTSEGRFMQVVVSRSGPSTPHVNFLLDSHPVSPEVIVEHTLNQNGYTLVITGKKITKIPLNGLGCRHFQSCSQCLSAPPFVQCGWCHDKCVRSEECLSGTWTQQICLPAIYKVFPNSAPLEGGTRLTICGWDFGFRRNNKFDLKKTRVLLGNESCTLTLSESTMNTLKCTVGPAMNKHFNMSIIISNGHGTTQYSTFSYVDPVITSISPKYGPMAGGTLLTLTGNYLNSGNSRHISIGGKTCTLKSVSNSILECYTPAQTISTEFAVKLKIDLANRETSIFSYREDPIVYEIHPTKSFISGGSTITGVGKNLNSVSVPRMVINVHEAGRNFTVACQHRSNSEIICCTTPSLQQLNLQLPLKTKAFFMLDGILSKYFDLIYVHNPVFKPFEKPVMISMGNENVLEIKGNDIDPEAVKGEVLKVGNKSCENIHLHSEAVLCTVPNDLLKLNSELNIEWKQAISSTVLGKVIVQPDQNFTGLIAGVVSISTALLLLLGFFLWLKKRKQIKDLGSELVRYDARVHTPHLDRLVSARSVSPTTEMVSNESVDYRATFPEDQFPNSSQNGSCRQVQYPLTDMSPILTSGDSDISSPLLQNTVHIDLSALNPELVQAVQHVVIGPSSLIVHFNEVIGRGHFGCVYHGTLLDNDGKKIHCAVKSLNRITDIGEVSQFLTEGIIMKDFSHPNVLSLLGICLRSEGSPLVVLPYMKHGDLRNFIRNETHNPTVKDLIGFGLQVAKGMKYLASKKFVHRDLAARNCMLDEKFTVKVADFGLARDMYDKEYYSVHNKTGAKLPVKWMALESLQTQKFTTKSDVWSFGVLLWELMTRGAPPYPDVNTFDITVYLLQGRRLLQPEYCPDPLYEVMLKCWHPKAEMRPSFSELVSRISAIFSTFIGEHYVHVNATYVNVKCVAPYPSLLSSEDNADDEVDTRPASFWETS

Compound: COC(=O)[C@@]1(O)C[C@H]2O[C@]1(C)n1c3ccccc3c3c4c(c5c6ccccc6n2c5c31)C(=O)NC4 [K252a]
- HGF-mediated scattering [1]: prevents HGF-mediated scattering
- Met-driven proliferation [2]: reduces Met-driven proliferation
- Met autophosphorylation [3]: inhibits Met autophosphorylation
- Met mediated transformation [4]: reverses Met mediated transformation

Compound: Cc1[nH]c(/C=C2\C(=O)Nc3ccc(S(=O)(=O)Cc4c(Cl)cccc4Cl)cc32)c(C)c1C(=O)N1CCC[C@@H]1CN1CCCC1 [PHA-665752, (3Z)-5-[(2,6-dichlorobenzyl)sulfonyl]-3-[(3,5-dimethyl-4-{[(2R)-2-(pyrrolidin-1-ylmethyl)pyrrolidin-1-yl]carbonyl}-1H-pyrrol-2-yl)methylene]-1,3-dihydro-2H-indol-2-one]
- effect on number of viable cells [5]: dramatic decrease in the number of viable cells; also recorded: dramatic reduction in cell numbers
- effect on proliferation as a function of time [6]: initial arrest in proliferation, followed by cell death
- effect on number of viable cells / proliferation [7]: resistant; also recorded: no effect
- Extreme sensitivity (drug concentration) [8]: 100 nM
- viability at 0.5 µM [9]: 118 ± 21.1%
- viability at 0.5 µM [10]: 4 ± 0.2%
- viability at 0.5 µM [11]: 38.4 ± 1.2%
- viability at 0.5 µM [12]: 86 ± 7.4%
- viability at 0.5 µM [13]: 3.2 ± 0.3%
- viability at 0.5 µM [14]: 87.5 ± 4%
- viability at 0.5 µM [15]: 89.6 ± 2.6%
- viability at 0.5 µM [16]: 100 ± 12.3%
- viability at 0.5 µM [17]: 105 ± 9.5%
- viability at 0.5 µM [18]: 104 ± 4.2%
- viability at 0.5 µM [19]: 99.8 ± 1.9%
- viability at 0.5 µM [20]: 101 ± 3.2%
- viability at 0.5 µM [21]: 99.9 ± 1.5%
- viability at 0.5 µM [22]: 92.8 ± 2.1%
- viability at 0.5 µM [23]: 5.8 ± 0.5%
- viability at 0.5 µM [24]: 12.8 ± 1.2%
- viability at 0.5 µM [25]: 91.3 ± 2.1%
- baseline phosphorylation of downstream effectors ERK1/2, AKT, STAT3, FAK [26]: effectively abrogated the baseline phosphorylation
- baseline phosphorylation of ERK1/2, AKT, STAT3, FAK [27]: no effect on baseline phosphorylation
- effect on proliferation rate as a function of time [28]: unaffected
- IC50 [29]: > 10 µM
- constitutive MET autophosphorylation [30]: effectively suppressed the constitutive MET autophosphorylation
- induction of apoptosis [31]: not in Amp− cells
- induction of apoptosis [32]: induction of apoptosis; also recorded: demonstrated apoptosis

Compound: COc1cc2ncnc(Nc3ccc(F)c(Cl)c3)c2cc1OCCCN1CCOCC1 [gefitinib]
- drug sensitivity [33]: relatively resistant
- Extreme sensitivity (drug concentration) [34]: 100 nM
